Read-outs that look alike come from different tables or passages of the source.
Legend:
E. coli [1] = experiment: Biofilm formation assay (crystal violet); type: cell-based, Escherichia coli; conditions: 8 h at 37 °C, absorbance at 550 nm, n = 4
Experimental: E. coli cells were thawed, cultured overnight, and then subcultured. […] To prevent subsequent background staining, the culture medium was removed and washed three times with distilled water. Then, 125 μL of crystal violet solution (0.1%, w/v) was added to the cells, which were incubated for another 10 min. Thereafter, the solution was removed, and the cells were washed with water and dried overnight. Lastly, 125 µL of a 30% acetic acid solution was added to the cells, which were incubated for 10 min to dissolve the film. The absorbance of the cells was then measured using a microplate reader (VERSAmax, Molecular Devices, Sunnyvale, CA, USA) at a wavelength of 550 nm.

[2] = system: Staphylococcus aureus (S. aureus); experiment: Bacterial growth assay (turbidity, OD600); type: cell-based; conditions: 100 µg/mL, 1-8 h
Experimental: (§1) The antibacterial effect of FKFL-G2 was evaluated using Escherichia coli (E. coli) DH5α, which is kanamycin-resistant, and Staphylococcus aureus (S. aureus). Bacterial growth was estimated based on turbidity measurements, a commonly used method of evaluating the density of bacteria grown on a solution medium. In this process, E. coli and S. aureus bacteria were thawed, cultured overnight, and subcultured. […] The optical density (OD) of each sample was measured at a wavelength of 600 nm using an ultraviolet–visible spectrophotometer (OPTIZEN QX, Optizen, Daejeon, Republic of Korea).

E. coli [3] = experiment: Membrane permeabilization assay (NPN); type: cell-based, Escherichia coli; conditions: 100 µL of 1 mg/mL in 1 mL, 30 min, HEPES pH 7.8, ex 350 / em 429 nm, n = 3
Experimental: (§2) To evaluate the ability of FKFL-G2 to disrupt bacterial cell membranes, the membrane permeabilization assay was performed using N-phenyl-1-naphthylamine (NPN). E. coli and S. aureus bacteria were thawed and cultured overnight at 37 °C while being shaken at 180 rpm. After the absorbance of the bacterial solutions reached an OD600 of 1.0, the bacterial cells were harvested via centrifugation at 3500 rpm for 10 min. The bacterial pellet was washed twice with 4-(2-hydroxyethyl)-1-piperazineethanesulfonic acid (HEPES) buffer (pH 7.8). The bacterial pellets were then subjected to another round of centrifugation at 3500 rpm for 10 min and resuspended in 1 mL of HEPES (pH 7.8) to make bacterial solutions. […] Triton X-100, a well-known surfactant with a high capacity to destroy cell membranes, was used as a control. The fluorescence of each solution was measured using a fluorometer (LS45 Fluorescence Spectrometer, PerkinElmer, Waltham, MA, USA) at an excitation wavelength of 350 nm and emission wavelength of 429 nm.

S. aureus [4] = experiment: Membrane permeabilization assay (NPN); type: cell-based, Staphylococcus aureus; conditions: 100 µL of 1 mg/mL in 1 mL, 30 min, HEPES pH 7.8, ex 350 / em 429 nm, n = 3
Experimental: as §2

[5] = system: Escherichia coli (E. coli) DH5α, kanamycin-resistant; experiment: Bacterial growth assay (turbidity, OD600); type: cell-based; conditions: 100 µg/mL, 1-8 h
Experimental: as §1

[6] = Zeta potential and mean diameter (Zetasizer Nano ZS, DLS); type: physicochemical; conditions: for Diameter / Polydispersity (PDI): DLS at RT, repeated three times; for Zeta Potential: room temperature, triplicate
Experimental: The surface charge and the mean diameter of the FKFL-G2 were measured in triplicate and evaluated at various concentrations at room temperature using a Zetasizer Nano ZS (Malvern Panalytical, Malvern, UK).

S. aureus [7] = experiment: Colony-forming unit assay; type: cell-based, Staphylococcus aureus; conditions: 100 µg/mL, 24 h growth on agar plate, n = 3
Experimental: (§3) A colony-forming unit assay was performed to determine the effect of FKFL-G2 on bacterial colony formation. This process followed the same steps as the turbidity test in Section 2.5. The OD of the cells was measured after 24 h of growth. The cell solution was diluted by a factor of 10^7; after which, 100 µL of the diluted solution was sprayed onto an agar plate and incubated in a shaking incubator for 24 h at 37 °C. The number of colonies produced was then observed.

E. coli [8] = experiment: Colony-forming unit assay; type: cell-based, Escherichia coli; conditions: 100 µg/mL, 24 h growth on agar plate, n = 3
Experimental: as §3

S. aureus [9] = experiment: Scanning electron microscopy of treated bacteria; type: cell-based, Staphylococcus aureus; conditions: 8 h at 37 °C
Experimental: (§4) Bacterial morphology with untreated or Amp, Kan, G2, and FKFL-G2-treated was observed using field emission scanning electron microscopy (FE-SEM; S-4800, Hitachi, Tokyo, Japan). E. coli and S. aureus bacteria were cultured and incubated with experimental and control samples for 8 h at 37 °C while being shaken at 225 rpm. Thereafter, 50 µL of the bacterial solution of each culture was placed on a silicon wafer and dried at room temperature. The bacteria-containing wafers were placed on a 24-well plate and treated with 4% paraformaldehyde for 30 min. The surfaces were then washed using various concentrations of ethanol solution 0%, 25%, 50%, 75%, and 99.9%. The washed wafers were coated with platinum for 90 s; after which, and the appearance of bacteria was observed using FE-SEM (S-4800, Hitachi, Tokyo, Japan). The shapes of treated bacterial cells were compared with those of nontreated corresponding bacterial cells.

[10] = Critical aggregation concentration (CAC), Nile red fluorescence; type: physicochemical; conditions: ex 550 nm, intensity at 650 nm, FKFL-G2 0.001 to 0.9 mg/mL
Experimental: In order to confirm whether FKFL-G2 forms an aggregate by itself, the CAC was measured by fluorescence spectroscopy using Nile red. A 1 mL solution of FKFL-G2 with a concentration range of 0.001 to 0.9 mg/mL was combined with 5 µL of Nile red (1 mM in MeOH) and mixed by vortexing. Subsequently, fluorescence was measured at wavelengths of 550 nm for excitation and 560–760 nm for emission using a fluorometer (LS45, Fluorescence Spectrometer, PerkinElmer), and the fluorescence intensity at 650 nm was analyzed to measure the values of the nanoparticles.

NIH3T3 cells = system: NIH3T3 cells
Experimental: NIH3T3 cells were used to evaluate the cytotoxicity of the FKFL-G2 dendrimer. A total of 1.8 × 10^4 cells/well were seeded in a 96-well plate and incubated in 90 µL of Dulbecco’s modified Eagle’s medium, containing 10% (v/v) fetal bovine serum and 1% (w/v) penicillin/streptomycin, for 16 h at 37 °C in a humidified atmosphere containing 5% CO2. […] Each sample in the experimental group was treated with 10 µL of the FKFL-G2 dendrimer at the following concentrations: 12.5, 25, 50, 100, and 200 µg/mL. After 24 h of incubation, 10 µL of EZ-Cytox reagent (WST-8) was added to each well (except for that used as the negative control), which were incubated for a subsequent 2 h. Lastly, the absorbance of the wells measured a data wavelength of 450 nm via a colorimetric enzyme-linked immunosorbent assay (VERSAmax, Molecular Devices, Sunnyvale, CA, USA).

E. coli [11] = experiment: Scanning electron microscopy of treated bacteria; type: cell-based, Escherichia coli; conditions: 8 h at 37 °C
Experimental: as §4

## CC1(C)S[C@@H]2[C@H](NC(=O)[C@H](N)c3ccccc3)C(=O)N2[C@H]1C(=O)O [Ampicillin]
E. coli [1]
  biofilm formation inhibition rate: approximately 98%
[2]
  bacterial growth, OD600 over time (in words): remained stable

## NC[C@H]1O[C@H](O[C@H]2[C@H](O)[C@@H](O[C@H]3O[C@H](CO)[C@@H](O)[C@H](N)[C@H]3O)[C@H](N)C[C@@H]2N)[C@H](O)[C@@H](O)[C@@H]1O [kanamycin, Kanamycin]
E. coli [3]
  membrane permeabilization, NPN fluorescence (in words): did not show any membrane perturbation effect
S. aureus [4]
  membrane permeabilization, NPN fluorescence (in words): did not show any membrane perturbation effect
E. coli [1]
  biofilm formation inhibition rate: 75%
[2]
  bacterial growth, OD600 over time (in words): remained stable
[5]
  bacterial growth, OD600 over time (in words): grew well

## phenylalanine (F)-lysine (K)-phenylalanine (F)-Leucine (L)-polyamidoamine generation 2 (PAMAM G2) [FKFL-G2]
E. coli [3]
  membrane permeabilization, NPN fluorescence (in words): higher fluorescence than PAMAM G2
[6]; concentration 42.3 µM
  Diameter: 158.33 ± 12.59
  Polydispersity (PDI): 0.628 ± 0.14
  Zeta Potential: 29.63 ± 6.51
[6]; concentration 84.6 µM
  Diameter: 109.83 ± 17.54
  Polydispersity (PDI): 0.459 ± 0.18
  Zeta Potential: 35.5 ± 6.0
[6]; concentration 169.2 µM
  Diameter: 98.45 ± 6.95
  Polydispersity (PDI): 0.475 ± 0.03
  Zeta Potential: 38.23 ± 5.74
S. aureus [4]
  membrane permeabilization, NPN fluorescence (in words): higher fluorescence than PAMAM G2
E. coli [1]
  biofilm formation inhibition rate: approximately 98%
S. aureus [7]
  colony formation (in words): strong antibacterial effect
E. coli [8]
  colony formation (in words): strong antibacterial effect
S. aureus [9]
  cell density in FE-SEM images (in words): lowest
[10]
  Critical aggregation concentration (CAC): 31.03 µM
[2]
  bacterial growth, OD600 over time (in words): decreased over time
NIH3T3 cells; 8.46 µM
  cell viability: about 83%
NIH3T3 cells; 16.9 µM
  cell viability: ~48%
E. coli [11]
  cell density in FE-SEM images (in words): lowest

Source: paper PMC10053621 (Pharmaceutics, 2023)
